Results: patent US20250255867A1 (Kadmon Corporation, LLC, priority 2022, published 2025)

System: patients with cGVHD
Experiment: Example 1: corticosteroid and calcineurin inhibitor sparing
Format: in vivo, human
Conditions: for Participants who discontinued CNI, number / Participants who discontinued CNI, percent / Participants with reduction in CNI dose, number / Participants with reduction in CNI dose, percent: baseline up to EOT
Protocol: Corticosteroid sparing. […] The mean corticosteroid dose was reduced by 45%. The median time to corticosteroid therapy discontinuation was 29 weeks (range, 8-77 weeks).
Change from Baseline in Corticosteroids Dose. An EOT visit was performed within 3 days after the participant's last dose of study drug. Baseline value was defined as valid and last non-missing value obtained within 28 days prior to participant receiving first study medication. The mITT population was analyzed, with the ‘overall number of participants analyzed’=participants with available data for this outcome measure.
Change from Baseline in Calcineurin Inhibitor (CNI). Calcineurin inhibitors included systemic tacrolimus and cyclosporine. Number of participants who took CNI at Baseline and had reduction and discontinuation in CNI use as compared to Baseline during the study are reported in this outcome measure. EOT visit was performed within 3 days after the participant's last dose of study drug. Baseline value was defined as valid and last non-missing value obtained within 28 days prior to participant receiving first study medication.

[1] = Total N=54, listed as belumosudil

CC(C)NC(=O)COc1cccc(-c2nc(Nc3ccc4[nH]ncc4c3)c3ccccc3n2)c1 [Belumosudil, 2-{3-[4-(1H-indazol-5-ylamino)-2-quinazolinyl]phenoxy}-N-(propan-2-yl) acetamide]
CS discontinuation (Cohort 1 200 mg QD): 4 (24, 7 to 50) %
Mean percent change in CS dose from baseline, nonresponder (Cohort 1 200 mg QD): −26%
Mean percent change in CS dose from baseline, overall (Cohort 1 200 mg QD): −50%
Mean percent change in CS dose from baseline, responder (Cohort 1 200 mg QD): −63%
Proportion with CS reduction (Cohort 1 200 mg QD): 13 (76, 50 to %
Change From Baseline in Corticosteroids Dose, Mean (Standard Deviation) (Cohort 1 200 mg QD, baseline to end of treatment): −0.110 (0.101) milligrams per kilogram per day
Participants who discontinued CNI, number (Cohort 1: 200 mg QD): 0
Participants who discontinued CNI, percent (Cohort 1: 200 mg QD): (0%)
Participants with reduction in CNI dose, number (Cohort 1: 200 mg QD): 5
Participants with reduction in CNI dose, percent (Cohort 1: 200 mg QD): (83%)
CS discontinuation (Cohort 2 200 mg BID): 2 (13, 2 to 38) %
Mean percent change in CS dose from baseline, nonresponder (Cohort 2 200 mg BID): −37%
Mean percent change in CS dose from baseline, overall (Cohort 2 200 mg BID): −36%
Mean percent change in CS dose from baseline, responder (Cohort 2 200 mg BID): −36%
Proportion with CS reduction (Cohort 2 200 mg BID): 9 (56, 30 to 80) %
Participants who discontinued CNI, number (Cohort 2: 200 mg BID): 1
Participants who discontinued CNI, percent (Cohort 2: 200 mg BID): 17%
Participants with reduction in CNI dose, number (Cohort 2: 200 mg BID): 5
Participants with reduction in CNI dose, percent (Cohort 2: 200 mg BID): 83%
CS discontinuation (Cohort 3 400 mg QD): 4 (19, 5 to 42) %
Mean percent change in CS dose from baseline, nonresponder (Cohort 3 400 mg QD): −19%
Mean percent change in CS dose from baseline, overall (Cohort 3 400 mg QD): −47%
Mean percent change in CS dose from baseline, responder (Cohort 3 400 mg QD): −63%
Proportion with CS reduction (Cohort 3 400 mg QD): 14 (67, 43 to %
Participants who discontinued CNI, number (Cohort 3: 400 mg QD): 3
Participants who discontinued CNI, percent (Cohort 3: 400 mg QD): 27%
Participants with reduction in CNI dose, number (Cohort 3: 400 mg QD): 6
Participants with reduction in CNI dose, percent (Cohort 3: 400 mg QD): 55%
Mean percent change in CS dose from baseline, nonresponder (Total): −26%
Mean percent change in CS dose from baseline, overall (Total): −45%
Mean percent change in CS dose from baseline, responder (Total): −55%
CS discontinuation (Total N=54): Approximately 20%
CS discontinuation (Total N=54, listed as KD025): 10 (19, 9 to 31) %
Proportion with CS reduction (Total N=54, listed as KD025): 36 (67, 53 to %
CS discontinuation [1]: 19%
Proportion with CS reduction [1]: 67%
Mean corticosteroid dose reduction (all patients): 45%
Mean corticosteroid dose reduction (nonresponders): 26%
Median time to corticosteroid therapy discontinuation (range, 8-77 weeks): 29 weeks
Mean corticosteroid dose reduction (responders): 55%
